{
  "source": "patent US6538023B1",
  "about": "“Therapeutic uses of green tea polyphenols for sickle cell disease” (priority 2000, dated 2003)",
  "tested_on": "sickle red blood cells (K-Cl cotransport)",
  "experiment": "Inhibition of dense cell formation triggered by 500 mM urea (K-Cl cotransport) in sickle red blood cells",
  "format": "cell-based, human",
  "settings": "37 centigrade, 3 hours; for inhibition of dense cell formation: hematocrit 2%; for inhibition of dense cell formation (FIG. 4): 0.6 mM, oxygenated and deoxygenated conditions",
  "procedure": "The reaction medium consists of: 150 mM NaCl, 1 mM MgSO4, 10 mM HEPES buffer and 10 mM glucose. The osmolarity of the medium was adjusted to 290 mOsm/kg using a freezing point osmometer and the pH was adjusted to 7.4\nFor in vitro tests, blood was obtained from adult sickle cell patients (using acid-citrate-dextrose as an anticoagulant) whose hemoglobin F content is less than 1% and whose content of irreversibly sickled cells is less than 10%. The blood could be used for 2 days as long as the air-space of the container was equilibrated with 95% air/5% CO2 and the container was gently tumbled (1 to 2 rpm) at 4° C.\nFour ml of the density gradient solution (density=1.104) was poured into each of 15 ml COREX centrifuge tubes (Corning Glass), and the tubes were spun at 10,000 rpm for 5 min, by which a density gradient was automatically formed. Then, 100 μl of blood was overlayered on top of each pre-formed density gradient, and the tubes were span for 10 minutes at 2,500 rpm using a low speed centrifuge with a swing rotor.\nWhen red blood cells of normal subject with normal hemoglobin were spun, they all stayed near a top portion of the gradient (FIG. 2A). […] Then, the red blood cells in the top layer of each tubes, which consists of “non-dense cells”, were collected, washed with the reaction medium, resuspended in the same medium, and used for the experiments.\nAs described above, tubes each containing 4 ml of the density gradient solution with the density of 1.104 were spun at 12,000 rpm for 5 min to form gradient density. K-Cl cotransport experiments were conducted by incubating a suspension of “non-dense cells” with the hematocrit value of 2% at 37 centigrade for 3 hours. Then, 50 μl of each non-dense cell suspension was overlayered on top of the pre-formed density gradient, and the tubes were span for 10 minutes at 2,500 rpm using a low speed centrifuge with a swing rotor. If 500 mM urea was added before the incubation, dense cells were formed due to the stimulation of K-Cl cotransport as shown in FIG. 2D.\nWhen the bottom layer was formed, red cells in both the top and bottom layers were separately collected, washed and hemolyzed in 5 mM phosphate buffer (pH 7.4) containing 0.5 mM EDTA and 0.5% of a detergent, BRIJ-30. From the hemoglobin content as determined by spectrophotometry, we determined the percentage of dense cell formation (Ohnishi, S. T. British J. Haematology 55:665-671, 1983).\nFIG. 3. Dense cells can be formed by incubating non-dense cells at 37 centigrade for 3 hours in the presence of 500 mM urea, which triggers K-Cl cotransport and concomitant dehydration. […] The formation can be inhibited by the addition of inhibitors before starting the incubation. […] However, neither 2 mM vitamin C nor 2 mM vitamin E inhibited the dense cell formation.\nFIG. 4. The inhibition of dense cell formation triggered with 500 mM urea at 37 centigrade for 3 hours by different green tea polyphenols. Open columns are for the oxygenated condition and filled columns for the deoxygenated condition. Abbreviations. CH: (+)-Catechin; EC: (−)-Epicatechin; ECg: (−)-Epicatechin gallate; EGC: (−)-Epigallocatechin; and EGCg: (−)-Epigallocatechin gallate.",
  "note": "“Also recorded” adds a separate entry of the source.",
  "data": [
    {"compound": "COC[C@@H]([C@H](O)[C@H](O)C(=O)NCC[C@H](C)c1nc(/C=C/C[C@@H]2O[C@]3(C[C@@H](O)[C@@H]2C)O[C@H]([C@H](C[C@H](O)[C@H](C)[C@H](O)[C@H](C)/C=C(C)/C(C)=C/C=C/C(C)=C\\C#N)OC)[C@H](OP(=O)(O)O)C3(C)C)co1)N(C)C", "note": "[calyculin A, reference compound]", "values": [
      {"measurement": "inhibition of dense cell formation", "setting": "25 nM", "value": "inhibited the dense cell formation completely"}
    ]},
    {"compound": "Oc1cc(O)c2c(c1)O[C@H](c1ccc(O)c(O)c1)[C@@H](O)C2", "note": "[CH, (+)-Catechin]", "values": [
      {"measurement": "inhibition of dense cell formation (FIG. 4)", "value": "no effects"}
    ]},
    {"compound": "(−)-Epigallocatechin gallate [EGCg]", "values": [
      {"measurement": "inhibition of dense cell formation (FIG. 4)", "value": "significant effect; also recorded: maximum inhibitory effect"},
      {"measurement": "inhibition of dense cell formation", "setting": "0.2-0.6 mM", "value": "effectively inhibited dense cell formation"}
    ]},
    {"compound": "Oc1cc(O)c2c(c1)O[C@H](c1cc(O)c(O)c(O)c1)[C@H](O)C2", "note": "[EGC, (−)-Epigallocatechin]", "values": [
      {"measurement": "inhibition of dense cell formation (FIG. 4)", "value": "significant effect"}
    ]},
    {"compound": "O=C(O[C@@H]1Cc2c(O)cc(O)cc2O[C@@H]1c1ccc(O)c(O)c1)c1cc(O)c(O)c(O)c1", "note": "[ECg, (−)-Epicatechin gallate]", "values": [
      {"measurement": "inhibition of dense cell formation (FIG. 4)", "value": "significant effect"}
    ]},
    {"compound": "C=C1[C@@H](O)[C@@H]2O[C@]3(CC[C@H](/C=C/[C@@H](C)[C@@H]4CC(C)=C[C@@]5(O[C@H](C[C@@](C)(O)C(=O)O)CC[C@H]5O)O4)O3)CC[C@H]2O[C@@H]1[C@@H](O)C[C@H](C)[C@H]1O[C@@]2(CCCCO2)CC[C@H]1C", "note": "[okadaic acid, reference compound]", "values": [
      {"measurement": "inhibition of dense cell formation", "setting": "100 nM", "value": "inhibited the dense cell formation completely"}
    ]},
    {"compound": "O=C1O[C@H]([C@@H](O)CO)C(O)=C1O", "note": "[Vitamin C, reference compound]", "values": [
      {"measurement": "inhibition of dense cell formation", "setting": "2 mM", "value": "no inhibitory effect"}
    ]},
    {"compound": "Vitamin E [reference compound]", "values": [
      {"measurement": "inhibition of dense cell formation", "setting": "2 mM", "value": "no inhibitory effect"}
    ]}
  ]
}
